How the values were obtained:
[1] = target: α-glucosidase (E.C.3.2.1.20); test: α-Glucosidase enzyme inhibition assay (PNP-G substrate, spectrophotometric); format: biochemical
Method: α-Glucosidase (E.C.3.2.1.20) enzyme inhibition assay was performed according to the slightly modified method of Matsui et al. α-glucosidase (E.C.3.2.1.20) from Saccharomyces species, purchased from Wako Pure Chemical Industries Ltd. (Wako 076-02841). The enzyme inhibition was measured spectrophotometrically at pH 6.9 and at 37° C. using 0.7 mM p-nitrophenyl-α-D-glucopyranoside (PNP-G) as a substrate and 500 m units/mL enzyme, in 50 mM sodium phosphate buffer containing 100 mM NaCl. […] The increment in absorption at 400 nm, due to the hydrolysis of PNP-G by α-glucosidase, was monitored continuously on microplate spectrophotometer (Spectra Max Molecular Devices, USA).) [T. Matsui, C. Yoshimoto, K. Osajima, T. Oki, and Y. Osajima. Biosci. Biotech. Biochem., 1996, 60, 2019].

[2] = Post-prandial blood glucose concentration in rats; format: in vivo

For `CC(=O)OC1CCC2(C)C(CCC3(C)C2CC=C2C4CC(C)(C)CCC4(C)CCC23C)C1(C)C` (stereo not drawn) [β-Amyrin acetate, 12-Oleanen-3-yl acetate], the IC50 ([1]; pH 6.9, 37° C., 0.7 mM PNP-G substrate, 500 m units/mL enzyme) was 22.27 ± 0.112 µM, the “potency compared with Acarbose (times)” value ([1]; α-glucosidase inhibition, relative to acarbose) was “approximately 35 times” and the “post-prandial blood glucose concentration” value [2] was “reduced”.
